For one assay, the target named is Cannabinoid receptor 2 (Mus musculus, UniProt P47936). Briefly: Compound was evaluated for its ability to displace specifically bound [3H]CP-55940 from a Cannabinoid receptor 2 enriched mouse spleen preparation. It counts as tissue-based.
In another assay the target is Cannabinoid receptor 1 (Rattus norvegicus, UniProt P20272). Briefly: Compound was evaluated for its ability to displace specifically bound [3H]CP-55940 from a Cannabinoid receptor 1 enriched rat brain microsome preparation.
Cannabinoid receptor 1, sequence (P20272 whole entry): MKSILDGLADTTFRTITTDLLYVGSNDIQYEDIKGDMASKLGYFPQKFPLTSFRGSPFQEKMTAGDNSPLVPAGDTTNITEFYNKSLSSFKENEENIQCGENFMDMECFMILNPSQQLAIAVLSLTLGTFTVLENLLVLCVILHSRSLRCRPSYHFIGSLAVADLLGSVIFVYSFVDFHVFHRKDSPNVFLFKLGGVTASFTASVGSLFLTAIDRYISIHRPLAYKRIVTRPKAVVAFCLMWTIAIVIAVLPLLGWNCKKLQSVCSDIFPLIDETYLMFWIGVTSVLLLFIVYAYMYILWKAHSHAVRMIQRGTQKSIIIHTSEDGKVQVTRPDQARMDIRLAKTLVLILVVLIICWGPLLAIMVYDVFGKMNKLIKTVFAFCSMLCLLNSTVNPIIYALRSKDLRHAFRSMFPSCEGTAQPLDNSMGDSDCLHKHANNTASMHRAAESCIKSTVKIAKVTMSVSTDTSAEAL

In general, Ki refers to a measure of affinity in units of concentration, obtained from inhibition or displacement. The low end stands for a stronger hold on the target, the high end for a looser hold on the target.

Cannabinoid receptor 2, sequence (P47936 whole entry): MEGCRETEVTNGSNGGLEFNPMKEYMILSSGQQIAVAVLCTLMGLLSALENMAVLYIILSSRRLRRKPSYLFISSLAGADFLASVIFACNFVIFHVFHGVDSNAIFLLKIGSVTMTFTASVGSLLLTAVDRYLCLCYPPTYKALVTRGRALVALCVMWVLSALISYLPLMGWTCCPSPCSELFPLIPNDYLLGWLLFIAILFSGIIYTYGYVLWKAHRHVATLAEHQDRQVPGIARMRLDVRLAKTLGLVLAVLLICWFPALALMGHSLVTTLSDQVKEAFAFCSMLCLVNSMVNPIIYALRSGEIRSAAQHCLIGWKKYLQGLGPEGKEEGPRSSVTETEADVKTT

For the compound `CCCCCCCc1cc(O)c2c(c1)OC(C)(C)[C@@H]1CC[C@@H](CO)C[C@@H]21`, the Ki on Cannabinoid receptor 2 came to 14.3 nM. On to `CCCCC/C=C/c1cc(O)c2c(c1)OC(C)(C)[C@@H]1CC[C@@H](CO)C[C@@H]21`, for which the Ki on Cannabinoid receptor 1 came out at 1.2 nM; on Cannabinoid receptor 2, 5.3 nM. With `CCCCCC#Cc1cc(O)c2c(c1)OC(C)(C)[C@@H]1CC[C@@H](CO)C[C@@H]21`, the values for the Ki at Cannabinoid receptor 1 and at Cannabinoid receptor 2 were 5.8 nM and 61.6 nM, respectively. The like results for `CCCCC/C=C\c1cc(O)c2c(c1)OC(C)(C)[C@@H]1CC[C@@H](CO)C[C@@H]21` were, in that order, 0.8 nM and 9.5 nM.

The values above are taken from ChEMBL document CHEMBL1129689, “Unsaturated side chain beta-11-hydroxyhexahydrocannabinol analogs” (J Med Chem, 1996).
